# Biological target: T1, F508del (Homo sapiens, UniProt P13569, DEL508-508)
# T1 construct: expressed in transfected cells
# Test: Protocol 1: membrane potential optical assay (FLIPR III, voltage sensing dye), identification of potentiator compounds
# Assay type: cell-based
# Details: Table 3, compounds of Table 1
# Method in brief: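 Mouse NIH 3T3 fibroblasts stably expressing F508del, temperature-corrected at 27 °C for 24 h, pretreated with compound, then loaded with voltage-sensing redistribution dye. Forskolin was added in a single step with a chloride gradient (chloride-free gluconate bath; Bath Solution #1 HEPES pH 7.4). Membrane-potential fluorescence read on FLIPR III.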
# T1 sequence (P13569 with tags, fused parts or gaps DEL508-508): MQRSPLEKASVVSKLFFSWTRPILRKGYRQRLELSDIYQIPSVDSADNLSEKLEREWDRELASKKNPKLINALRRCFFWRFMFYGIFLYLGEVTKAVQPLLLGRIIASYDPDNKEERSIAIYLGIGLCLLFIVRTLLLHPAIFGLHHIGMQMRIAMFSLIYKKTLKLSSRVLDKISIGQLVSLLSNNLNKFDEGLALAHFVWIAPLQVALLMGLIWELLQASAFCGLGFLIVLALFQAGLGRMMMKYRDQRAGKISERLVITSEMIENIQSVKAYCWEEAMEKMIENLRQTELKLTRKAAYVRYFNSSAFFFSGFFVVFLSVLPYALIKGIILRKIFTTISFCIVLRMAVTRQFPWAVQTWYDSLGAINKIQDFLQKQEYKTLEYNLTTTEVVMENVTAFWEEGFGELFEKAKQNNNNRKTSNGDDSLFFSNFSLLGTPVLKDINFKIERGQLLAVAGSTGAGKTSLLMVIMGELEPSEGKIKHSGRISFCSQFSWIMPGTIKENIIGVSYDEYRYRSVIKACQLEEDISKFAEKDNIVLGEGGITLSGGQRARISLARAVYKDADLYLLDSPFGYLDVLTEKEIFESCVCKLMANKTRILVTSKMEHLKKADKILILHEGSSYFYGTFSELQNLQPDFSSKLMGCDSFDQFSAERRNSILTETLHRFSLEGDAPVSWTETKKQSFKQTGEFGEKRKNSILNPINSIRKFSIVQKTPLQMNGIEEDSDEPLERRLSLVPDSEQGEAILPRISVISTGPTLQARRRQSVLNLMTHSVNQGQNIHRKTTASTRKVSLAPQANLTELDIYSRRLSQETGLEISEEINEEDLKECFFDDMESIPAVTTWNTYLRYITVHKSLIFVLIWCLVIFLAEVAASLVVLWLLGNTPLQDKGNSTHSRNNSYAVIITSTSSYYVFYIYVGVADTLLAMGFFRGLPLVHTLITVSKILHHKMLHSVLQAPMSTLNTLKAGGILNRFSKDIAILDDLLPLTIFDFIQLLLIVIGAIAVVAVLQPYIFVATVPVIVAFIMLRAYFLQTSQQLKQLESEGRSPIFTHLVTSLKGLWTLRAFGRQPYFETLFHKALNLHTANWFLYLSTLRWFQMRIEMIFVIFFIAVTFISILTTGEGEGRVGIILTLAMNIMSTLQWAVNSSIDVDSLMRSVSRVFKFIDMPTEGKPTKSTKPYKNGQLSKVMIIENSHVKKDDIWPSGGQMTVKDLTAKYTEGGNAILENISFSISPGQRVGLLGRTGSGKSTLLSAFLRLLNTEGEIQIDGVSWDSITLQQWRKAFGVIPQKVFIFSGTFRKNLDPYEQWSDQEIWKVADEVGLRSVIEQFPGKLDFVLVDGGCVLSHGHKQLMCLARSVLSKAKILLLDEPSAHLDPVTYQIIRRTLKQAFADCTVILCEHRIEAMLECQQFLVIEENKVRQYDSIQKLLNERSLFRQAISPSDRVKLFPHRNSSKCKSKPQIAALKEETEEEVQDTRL
row,Structure (SMILES),EC30
1,"Cc1cc(C)c(Oc2nc(C(C)(C)C)ccc2C(=O)NS(=O)(=O)c2cccc(NCCO)n2)c(C)c1 [Compound 916, 6-tert-butyl-N-[[6-(2-hydroxyethylamino)-2-pyridyl]sulfonyl]-2-(2,4,6-trimethylphenoxy)pyridine-3-carboxamide]",+++ (“+++” means <3 uM)
2,"CCOc1cc(-c2ccc(C(=O)NS(=O)(=O)c3ccc[nH]c3=O)c(Oc3c(C)cc(C)cc3C)n2)ccc1F [Compound 917, 6-(3-ethoxy-4-fluoro-phenyl)-N-[(2-oxo-1H-pyridin-3-yl)sulfonyl]-2-(2,4,6-trimethylphenoxy)pyridine-3-carboxamide]",++ (“++” means between 3 uM and 10 uM)
3,"COc1cc(-c2ccc(C(=O)NS(=O)(=O)c3cccc(N)n3)c(Oc3c(C)cc(C)cc3C)n2)ccc1F [Compound 919, N-[(6-amino-2-pyridyl)sulfonyl]-6-(4-fluoro-3-methoxy-phenyl)-2-(2,4,6-trimethylphenoxy)pyridine-3-carboxamide]",+++ (“+++” means <3 uM)
4,"COc1cccc(F)c1-c1ccc(C(=O)NS(=O)(=O)c2cccc(N)n2)c(Oc2c(C)cc(C)cc2C)n1 [Compound 920, N-[(6-amino-2-pyridyl)sulfonyl]-6-(2-fluoro-6-methoxy-phenyl)-2-(2,4,6-trimethylphenoxy)pyridine-3-carboxamide]",+++ (“+++” means <3 uM)
5,"COc1cc(-c2ccc(C(=O)NS(=O)(=O)c3cccc(N)n3)c(Oc3c(C)cc(C)cc3C)n2)ccc1C#N [Compound 923, N-[(6-amino-2-pyridyl)sulfonyl]-6-(4-cyano-3-methoxy-phenyl)-2-(2,4,6-trimethylphenoxy)pyridine-3-carboxamide]",+++ (“+++” means <3 uM)
6,"CC(C)COc1cc(F)cc(-c2ccc(C(=O)NS(=O)(=O)c3cccc(N)n3)c(N3C[C@H]4CC[C@@H]3C4)n2)c1 [Compound 924, N-[(6-amino-2-pyridyl)sulfonyl]-2-[(1S,4R)-3-azabicyclo[2.2.1]heptan-3-yl]-6-(3-fluoro-5-isobutoxy-phenyl)pyridine-3-carboxamide]",+++ (“+++” means <3 uM)
7,"CC(C)COc1cc(F)cc(-c2ccc(C(=O)NS(=O)(=O)c3cccc(N)n3)c(N3CCCC34CCCC4)n2)c1 [Compound 926, N-[(6-amino-2-pyridyl)sulfonyl]-2-(9-azaspiro[4.4]nonan-9-yl)-6-(3-fluoro-5-isobutoxy-phenyl)pyridine-3-carboxamide]",+++ (“+++” means <3 uM)
8,"CC(C)Oc1ccc(-c2ccc(C(=O)NS(=O)(=O)c3cccc(N)n3)c(N3CCCC3C3CC3)n2)cn1 (centres unmarked) [Compound 928, N-[(6-amino-2-pyridyl)sulfonyl]-2-(2-cyclopropylpyrrolidin-1-yl)-6-(6-isopropoxy-3-pyridyl)pyridine-3-carboxamide]",+++ (“+++” means <3 uM)
9,"CCOCCc1ccc(C(=O)NS(=O)(=O)c2cccc(N)n2)c(Oc2c(C)cc(C)cc2C)n1 [Compound 929, N-[(6-amino-2-pyridyl)sulfonyl]-6-(2-ethoxyethyl)-2-(2,4,6-trimethylphenoxy)pyridine-3-carboxamide]",++ (“++” means between 3 uM and 10 uM)
10,"COc1ncc(-c2ccc(C(=O)NS(=O)(=O)c3ccc[nH]c3=O)c(Oc3c(C)cc(C)cc3C)n2)cc1C [Compound 930, 6-(6-methoxy-5-methyl-3-pyridyl)-N-[(2-oxo-1H-pyridin-3-yl)sulfonyl]-2-(2,4,6-trimethylphenoxy)pyridine-3-carboxamide]",++ (“++” means between 3 uM and 10 uM)
11,"CCC1CCN(c2nc(-c3cc(F)cc(OCC(C)C)c3)ccc2C(=O)NS(=O)(=O)c2cccc(N)n2)C1 (centres unmarked) [Compound 931, N-[(6-amino-2-pyridyl)sulfonyl]-2-(3-ethylpyrrolidin-1-yl)-6-(3-fluoro-5-isobutoxy-phenyl)pyridine-3-carboxamide]",+++ (“+++” means <3 uM)
12,"CCOc1ccc(-c2ccc(C(=O)NS(=O)(=O)c3ccc[nH]c3=O)c(Oc3c(C)cc(C)cc3C)n2)cn1 [Compound 932, 6-(6-ethoxy-3-pyridyl)-N-[(2-oxo-1H-pyridin-3-yl)sulfonyl]-2-(2,4,6-trimethylphenoxy)pyridine-3-carboxamide]",+ (“+” means greater than 10 uM)
13,"CC(C)COc1cc(F)cc(-c2ccc(C(=O)NS(=O)(=O)c3cccc(N)n3)c(OCC3CCOCC3)n2)c1 [Compound 933, N-[(6-amino-2-pyridyl)sulfonyl]-6-(3-fluoro-5-isobutoxy-phenyl)-2-(tetrahydropyran-4-ylmethoxy)pyridine-3-carboxamide]",+++ (“+++” means <3 uM)
14,"CC(C)COc1cc(F)cc(-c2ccc(C(=O)NS(=O)(=O)c3cccc(N)n3)c(N3[C@@H]4CCC[C@H]3CC4)n2)c1 [Compound 934, N-[(6-amino-2-pyridyl)sulfonyl]-2-[(1R,5S)-8-azabicyclo[3.2.1]octan-8-yl]-6-(3-fluoro-5-isobutoxy-phenyl)pyridine-3-carboxamide]",+++ (“+++” means <3 uM)
15,"Cc1cc(C)c(Oc2nc(-c3ccc4ccn(C)c4c3)ccc2C(=O)NS(=O)(=O)c2ccc[nH]c2=O)c(C)c1 [Compound 936, 6-(1-methylindol-6-yl)-N-[(2-oxo-1H-pyridin-3-yl)sulfonyl]-2-(2,4,6-trimethylphenoxy)pyridine-3-carboxamide]",++ (“++” means between 3 uM and 10 uM)
16,"Cc1cc(C)c(Oc2nc(C3=CCCCO3)ccc2C(=O)NS(=O)(=O)c2cccc(N)n2)c(C)c1 [Compound 937, N-[(6-amino-2-pyridyl)sulfonyl]-6-(3,4-dihydro-2H-pyran-6-yl)-2-(2,4,6-trimethylphenoxy)pyridine-3-carboxamide]",+++ (“+++” means <3 uM)
17,"Cc1cc(C)c(Oc2nc(-c3cc(C)nn3C)ccc2C(=O)NS(=O)(=O)c2cccc(N)n2)c(C)c1 [Compound 938, N-[(6-amino-2-pyridyl)sulfonyl]-6-(2,5-dimethylpyrazol-3-yl)-2-(2,4,6-trimethylphenoxy)pyridine-3-carboxamide]",++ (“++” means between 3 uM and 10 uM)
18,"CC(C)COc1cc(-c2ccc(C(=O)NS(=O)(=O)c3ccc[nH]c3=O)c(N3CCC(C)CC3)n2)ccc1Cl [Compound 941, 6-(4-chloro-3-isobutoxy-phenyl)-2-(4-methyl-1-piperidyl)-N-[(2-oxo-1H-pyridin-3-yl)sulfonyl]pyridine-3-carboxamide]",+++ (“+++” means <3 uM)
19,"CC(C)COc1cc(F)cc(-c2ccc(C(=O)NS(=O)(=O)c3ccn[nH]3)c(N3C[C@H](C)C[C@@H](C)C3)n2)c1 [Compound 942, 2-[(3R,5R)-3,5-dimethyl-1-piperidyl]-6-(3-fluoro-5-isobutoxy-phenyl)-N-(1H-pyrazol-5-ylsulfonyl)pyridine-3-carboxamide]",+++ (“+++” means <3 uM)

# The remaining lines, values ahead:
row,EC30,Structure (SMILES)
1,+++ (“+++” means <3 uM),"CC(C)Oc1ccc(-c2ccc(C(=O)NS(=O)(=O)c3cccc(N)n3)c(N3CC(C)(C)CC3(C)C)n2)cn1 [Compound 915, N-[(6-amino-2-pyridyl)sulfonyl]-6-(6-isopropoxy-3-pyridyl)-2-(2,2,4,4-tetramethylpyrrolidin-1-yl)pyridine-3-carboxamide]"
2,+++ (“+++” means <3 uM),"Cc1cc(C)c(CN2c3ccccc3C[C@@H]2C(=O)NS(=O)(=O)c2ccccc2)c(C)c1 [Compound 918, (2R)—N-(benzenesulfonyl)-1-[(2,4,6-trimethylphenyl)methyl]indoline-2-carboxamide]"
3,++ (“++” means between 3 uM and 10 uM),"CC(C)Oc1ccc(-c2ccc(C(=O)NS(=O)(=O)c3cccc(N)n3)c(N3C[C@H]4CC[C@@H]3C4)n2)cn1 [Compound 921, N-[(6-amino-2-pyridyl)sulfonyl]-2-[(1S,4R)-3-azabicyclo[2.2.1]heptan-3-yl]-6-(6-isopropoxy-3-pyridyl)pyridine-3-carboxamide]"
4,+++ (“+++” means <3 uM),"C[C@@H]1CC[C@H](C)N1c1nc(-c2cc(F)cc(OCC3CCC3)c2)ccc1C(=O)NS(=O)(=O)c1ccc[nH]c1=O [Compound 922, 6-[3-(cyclobutylmethoxy)-5-fluoro-phenyl]-2-[(2S,5R)-2,5-dimethylpyrrolidin-1-yl]-N-[(2-oxo-1H-pyridin-3-yl)sulfonyl]pyridine-3-carboxamide]"
5,+++ (“+++” means <3 uM),"CC(C)Oc1ccc(-c2ccc(C(=O)NS(=O)(=O)c3cccc(N)n3)c(N3C(C)CC(C)C3C)n2)cn1 (centres unmarked) [Compound 925, N-[(6-amino-2-pyridyl)sulfonyl]-6-(6-isopropoxy-3-pyridyl)-2-(2,3,5-trimethylpyrrolidin-1-yl)pyridine-3-carboxamide]"
6,++ (“++” means between 3 uM and 10 uM),"Cn1ccc2c(Cn3nc(C(C)(C)C)cc3C(=O)NS(=O)(=O)c3cccc(N)c3)cccc21 [Compound 927, N-(3-aminophenyl)sulfonyl-5-tert-butyl-2-[(1-methylindol-4-yl)methyl]pyrazole-3-carboxamide]"
7,++ (“++” means between 3 uM and 10 uM),"CC(C)Oc1ccc(-c2ccc(C(=O)NS(=O)(=O)c3cccc(N)n3)c(NC3CCc4ccccc43)n2)cn1 (centres unmarked) [Compound 935, N-[(6-amino-2-pyridyl)sulfonyl]-2-(indan-1-ylamino)-6-(6-isopropoxy-3-pyridyl)pyridine-3-carboxamide]"
8,+++ (“+++” means <3 uM),"COc1ncccc1S(=O)(=O)NC(=O)c1ccc(-c2ccccc2)nc1Oc1c(C)cc(C)cc1C [Compound 939, N-[(2-methoxy-3-pyridyl)sulfonyl]-6-phenyl-2-(2,4,6-trimethylphenoxy)pyridine-3-carboxamide]"
9,+++ (“+++” means <3 uM),"CC(C)Oc1ccc(-c2ccc(C(=O)NS(=O)(=O)c3cccc(N)n3)c(N3CCCCCC3)n2)cn1 [Compound 940, N-[(6-amino-2-pyridyl)sulfonyl]-2-(azepan-1-yl)-6-(6-isopropoxy-3-pyridyl)pyridine-3-carboxamide]"
10,+ (“+” means greater than 10 uM),"COc1nccc2c1cc(C(=O)NS(=O)(=O)c1cccc(N)c1)n2Cc1c(C)cc(C)cc1C [Compound 943, N-(3-aminophenyl)sulfonyl-4-methoxy-1-[(2,4,6-trimethylphenyl)methyl]pyrrolo[3,2-c]pyridine-2-carboxamide]"
